These results are taken from patent publication US12268660B2, “Oral pharmaceutical formulations of bitter compounds for pulmonary hypertension” (Aardvark Therapeutics Inc., priority 2018, dated 2025).

The nature of data set [1]: Solubility of test compounds (choice of control media). The following applies: water or DMSO.
Another data set relates to primary pulmonary SMCs. Nature of the data set: Second experiment: primary pulmonary SMCs induced to contract with 10 μM phenylephernine (PE). The settings on record: PE 10 μM; for synergy in combination with SIN: bitter agent with low SIN doses. Type of data set: cell-based. The method, then: In a second experiment, primary pulmonary SMCs were induced to contract using 10 μM phenylephernine (PE). PE was added after a baseline reading. The test compounds were added after a second timepoint and 800-1300 cells were assayed per trace, starting with FIG. 6.

The subject of data set [2] is human primary smooth muscle cells (PVSMC). The settings on record: endothelin-1 100 nM; for synergy in combination with SIN: bitter agent 1 mM with low SIN doses (10 μM).
Method: An in vitro model using human primary smooth muscle cells (PVSMC) were stimulated to contract with 100 nM endothelin-1, then treated with various test compounds alone and in combination with the PDE-5 inhibitor sildenafil, approved to treat PAH. The concentration used were 3-CQL at 1 mM, DB at 1 mM, DS at 1 mM and SIN (sildenafil) at 10 μM. The controls were 0.5% and 1% DMSO in media because DB is water-soluble but DS, 3-CQL and SIN are DMSO soluble.
A further data set has as its system TAS2R subtypes. The settings on record: cited from earlier work.
The conditions of data set [3]: cited from earlier work.
Setting [4] is: SIN by itself at low doses (10 μM).

Counter-ions that a name gives are not always drawn. Like-named read-outs stand apart in the source and are kept apart here.

For `O=C(/C=C/c1ccc(O)c(O)c1)O[C@@H]1C[C@]2(O)C[C@@H](OC2=O)[C@@H]1O` [3-CQL, 3-caffeoylquinic-1,5-lactone], the solubility entry in data set [1] is listed as “DMSO soluble”. Besides, the “synergy in combination with SIN” value in the data set on primary pulmonary SMCs is given as “possibly”; in data set [2], “synergy”.

As to `CC[N+](CC)(CC(=O)Nc1c(C)cccc1C)Cc1ccccc1.O=C([O-])c1ccccc1` [DB, Denatonium Benzoate], the “TAS2R subtypes activated (number)” value in the data set with TAS2R subtypes is listed as 8. Also, the “synergy in combination with SIN” value (in the data set with primary pulmonary SMCs; in data set [2]) was “synergy” throughout. Further, the “potency in reversal from peak contraction of the PVSMCs” value in data set [2] (DB alone (1 mM)) was “not potent”.

For the compound `CN1CCc2cccc3c2[C@H]1Cc1ccc(O)c(O)c1-3` [Apomorphine, 5,6,6a,7-Tetrahydro-6-methyl-4H-dibenzo[de,g]quinoline-10,11-diol hydrochloride], the oral availability in data set [3] is listed as approximately 4%.

With `CCCc1nn(C)c2c(=O)[nH]c(-c3cc(S(=O)(=O)N4CCN(C)CC4)ccc3OCC)nc12` [SIN, sildenafil, reference compound], the solubility entry in data set [1] was “DMSO soluble”. The “in vitro efficacy against PE-induced contraction” value in the data set with primary pulmonary SMCs (SIN at 100 μM) is on record as “extremely effective”; in the data set on primary pulmonary SMCs (setting [4]), “not effective”. Moreover, the figures for the “efficacy in reversal from peak contraction of the PVSMCs” value in data set [2] (SIN at 100 μM) and in data set [2] (setting [4]) were “extremely effective” and “not effective”, respectively.

Regarding quinine [reference compound], in the data set with TAS2R subtypes, the “TAS2R subtypes activated (number)” value is reported as 9.

As to `CC[N+](CC)(CC(=O)Nc1c(C)cccc1C)Cc1ccccc1` [DS, Denatonium Saccharide], the “synergy in combination with SIN” value (in the data set with primary pulmonary SMCs; in data set [2]) was “synergy” in each case.
